± gives the expanded uncertainty stated by the source.

Data on 2 compounds can be found in the NIST ThermoML archive (doi:10.1016/j.jct.2019.01.012).

The nature of the series: molar enthalpy of vaporization or sublimation. As to conditions: 298.15 K; Liquid; Static calorimetry.

`O=C1C=CCC1` [2-cyclopenten-1-one]: the molar enthalpy amounted to 12.5 ± 0.359 kcal/mol.
With `CC1=CC(=O)CC1` [3-methyl-2-cyclopenten-1-one], the molar enthalpy turned out to be 12.5 ± 0.335 kcal/mol.
